Assay [1] deals with O-GlcNAc modified proteins in PC-12 cells or SH-SY5Y cells. Description: Western blot analyses of O-GlcNAc modified proteins in cells. It counts as cell-based. As to conditions: western blot, cells dosed 4 hours at 37° C.; cell line not given. The procedure:
PC-12 cells or SH-SY5Y cells were dosed with the test compound or vehicle control at 37° C. for 4 hours. Once the incubation was completed the media was removed and cells were lysed. Extracted protein was then used for Western blot analysis using standard molecular biology techniques. The resulting membrane was probed with antibodies specific for tau phosphorylation sites (pSer396, pSer422, pThr231, pSer262) or with antibodies specific for O-GlcNAcylation sites (RL-2 or CTD110.6). The primary antibodies were visualised using appropriate secondary conjugated with the fluorophores Alexa 532 or Alexa 488. Actin was visualised using a FITC conjugated primary antibody. Relative quantification was measured in relation to the actin signal using Image lab software (BRL). Marked increases in O-GlcNAcylated proteins within the cells were observed as compared to controls when cells were dosed with test compound.
On the technique in general: A western blot detects proteins with antibodies after separation by electrophoresis.

Assay [2] has as its target T1, human OGA (Homo sapiens, UniProt O60502).
T1 construct: made in house
T1 sequence (O60502 1-916): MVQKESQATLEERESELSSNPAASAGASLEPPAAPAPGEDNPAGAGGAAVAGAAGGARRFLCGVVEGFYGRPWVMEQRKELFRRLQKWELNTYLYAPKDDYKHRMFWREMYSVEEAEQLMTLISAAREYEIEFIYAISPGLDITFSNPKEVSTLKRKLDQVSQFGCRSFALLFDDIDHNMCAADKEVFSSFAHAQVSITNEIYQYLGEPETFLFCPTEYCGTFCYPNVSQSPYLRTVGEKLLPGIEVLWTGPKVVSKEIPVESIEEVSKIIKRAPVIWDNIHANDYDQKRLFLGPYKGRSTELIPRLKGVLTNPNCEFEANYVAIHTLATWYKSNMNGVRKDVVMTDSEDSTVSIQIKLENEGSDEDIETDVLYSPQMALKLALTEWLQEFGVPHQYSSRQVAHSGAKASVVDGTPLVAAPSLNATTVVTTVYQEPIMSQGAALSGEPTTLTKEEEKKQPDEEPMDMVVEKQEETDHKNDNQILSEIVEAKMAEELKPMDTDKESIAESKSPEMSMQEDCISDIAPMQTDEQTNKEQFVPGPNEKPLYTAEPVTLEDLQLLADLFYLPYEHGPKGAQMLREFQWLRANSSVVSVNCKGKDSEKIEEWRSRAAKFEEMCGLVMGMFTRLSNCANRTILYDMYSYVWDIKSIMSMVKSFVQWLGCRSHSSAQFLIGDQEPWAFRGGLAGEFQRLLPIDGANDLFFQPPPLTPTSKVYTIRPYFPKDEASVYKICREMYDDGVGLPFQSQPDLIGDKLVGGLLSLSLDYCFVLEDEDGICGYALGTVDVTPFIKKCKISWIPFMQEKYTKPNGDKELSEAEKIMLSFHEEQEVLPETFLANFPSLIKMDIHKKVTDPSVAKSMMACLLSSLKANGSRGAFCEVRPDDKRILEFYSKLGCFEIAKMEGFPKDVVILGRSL
Briefly: Determination of IC50 values for inhibition of human OGA. It counts as biochemical. Here is the method:
Inhibitors identified from the screen described in Example 1 were evaluated for IC50 using a procedure adapted from Biochem. J. 2009, 420, 221-227. IC50 determination was carried out using a range of inhibitor concentrations from 300 μM to 0.003 μM or 100 μM to 0.001 μM. IC50 values were calculated using XLFit 4.

Assay [3] addresses T2, human β-hexosaminidase [human placenta] (HexA/B).
T2 construct: other: human β-hexosaminidase, human placenta; room temperature, thirty minutes
Description: Determination of IC50 values for inhibition of human β-hexosaminidase. It counts as biochemical. The following applies: human β-hexosaminidase, human placenta; room temperature, thirty minutes. The procedure: (§1) Inhibitors identified from the screen described in Example 1 were evaluated for IC50 against human β-hexosaminidase [human placenta, Sigma-Aldrich] using a range of inhibitor concentrations from 300 μM to 0.003 μM or 100 μM to 0.001 μM and the following reaction conditions:
(§2) Reactions were carried out at room temperature for thirty minutes and then quenched through the addition of 150 μl 0.5M Na2CO3. Fluorescence readings were taken at excitation wavelength 360 nm and emission wavelength 450 nm. IC50 values were calculated using XLFit 4. The selectivity ratio for inhibition of human O-GlcNAcase over human β-hexosaminidase is defined here as:
(§3) IC50(human β-hexosaminidase)/IC50(Human OGA)

Assay [4] deals with human β-hexosaminidase [human placenta] (HexA/B). Described as above. It counts as biochemical. The following applies: ratio. The procedure: as §1, §2, §3

Usually EC50 stands for the concentration that produces a half-maximal response. A high value points to a less potent agent. A word on the IC50: it is the concentration that inhibits the measured activity by half. A higher IC50 goes with weaker potency in that assay.

For the compound `CCCCCCN1[C@H](CO)[C@@H](O)[C@H](O)[C@H]1CC(=O)NCCC` [Compound A055, 2-((2R,3R,4R,5R)-1-hexyl-3,4-dihydroxy-5-(hydroxymethyl)pyrrolidin-2-yl)-N-propylacetamide], the EC50 in assay [1] worked out at 3.72 µM. Moreover, the IC50 in assay [2] is 0.119 µM; in assay [3], > 300 µM. The “Selectivity: IC50(human β-hexosaminidase)/IC50(Human OGA)” value in assay [4] is recorded as >2529.

In assay [1], `CNC(=O)C[C@@H]1[C@H](O)[C@H](O)[C@@H](CO)N1CCc1ccccc1` [Compound A010, 2-((2R,3S,4R,5R)-3,4-dihydroxy-5-(hydroxymethyl)-1-phenethylpyrrolidin-2-yl)-N-methylacetamide] registered an EC50 of 1.54 µM. Also, the IC50 in assay [2] worked out at 0.009 µM; in assay [3] it was 33 µM. Also, in assay [4], the “Selectivity: IC50(human β-hexosaminidase)/IC50(Human OGA)” value amounted to 3666.

The compound `CCCCCCN1[C@H](CO)[C@@H](O)[C@H](O)[C@H]1CC(=O)NCC` [Compound A053, N-ethyl-2-((2R,3R,4R,5R)-1-hexyl-3,4-dihydroxy-5-(hydroxymethyl)pyrrolidin-2-yl)acetamide] gave an EC50 in assay [1] of 1.41 µM. The IC50 is 0.0629 µM in assay [2] and > 300 µM in assay [3]. In assay [4], the “Selectivity: IC50(human β-hexosaminidase)/IC50(Human OGA)” value is >4769.

Take `CNC(=O)C[C@@H]1[C@H](O)[C@H](O)[C@@H](CO)N1CCCC(C)C` [Compound A018, 2-((2R,3S,4R,5R)-3,4-dihydroxy-5-(hydroxymethyl)-1-(4-methylpentyl)pyrrolidin-2-yl)-N-methylacetamide]: in assay [1], a half-maximal response (EC50) required 0.931 µM. The IC50 turned out to be 0.014 µM in assay [2] and 69 µM in assay [3]. In assay [4], the “Selectivity: IC50(human β-hexosaminidase)/IC50(Human OGA)” value turned out to be 5000.

`CNC(=O)C[C@@H]1[C@H](O)[C@H](O)[C@@H](CO)N1CCCCCNS(=O)(=O)c1ccc(C)cc1` [Compound A064, 2-((2R,3S,4R,5R)-3,4-dihydroxy-5-(hydroxymethyl)-1-(5-(4-methylphenylsulfonamido)pentyl)pyrrolidin-2-yl)-N-methylacetamide] registered an EC50 in assay [1] of 0.127 µM. Besides, the IC50 in assay [2] is < 0.003 µM; in assay [3] it was 10.1 µM. Moreover, in assay [4], the “Selectivity: IC50(human β-hexosaminidase)/IC50(Human OGA)” value is >3366.

In turn, `CCNC(=O)C[C@@H]1[C@@H](O)[C@H](O)[C@@H](CO)N1CCCc1ccc(Cl)cc1` [Compound A063, 2-((2R,3R,4R,5R)-1-(3-(4-chlorophenyl)propyl)-3,4-dihydroxy-5-(hydroxymethyl)pyrrolidin-2-yl)-N-ethylacetamide] had an EC50 in assay [1] of 1.01 µM. For the same compound, the IC50 in assay [2] is 0.036 µM; in assay [3], > 300 µM. Besides, the “Selectivity: IC50(human β-hexosaminidase)/IC50(Human OGA)” value in assay [4] is recorded as >8333.

As for `CCNC(=O)C[C@@H]1[C@@H](O)[C@H](O)[C@@H](CO)N1C(=O)CCc1ccccc1` [Compound A069, 2-((2R,3R,4R,5R)-3,4-dihydroxy-5-(hydroxymethyl)-1-(3-phenylpropanoyl)pyrrolidin-2-yl)-N-ethylacetamide], the figures for the IC50 in assay [2] and in assay [3] were 224 µM and > 300 µM, respectively. Besides, the “Selectivity: IC50(human β-hexosaminidase)/IC50(Human OGA)” value in assay [4] was >1.34.

As to `CCNC(=O)C[C@@H]1[C@@H](O)[C@H](O)[C@@H](CO)N1CCCc1ccccc1` [Compound A061, 2-((2R,3R,4R,5R)-3,4-dihydroxy-5-(hydroxymethyl)-1-(3-phenylpropyl)pyrrolidin-2-yl)-N-ethylacetamide], the IC50 in assay [2] was 0.0693 µM; in assay [3], > 300 µM. The “Selectivity: IC50(human β-hexosaminidase)/IC50(Human OGA)” value in assay [4] is >4329.

With `CCCCCCN1[C@H](CC(=O)NC2CC2)[C@H](O)[C@H](O)[C@H]1CO` [Compound A049, N-cyclopropyl-2-((2R,3S,4R,5R)-1-hexyl-3,4-dihydroxy-5-(hydroxymethyl)pyrrolidin-2-yl)acetamide], the figures for the IC50 in assay [2] and in assay [3] were 1.06 µM and > 300 µM, respectively. Moreover, the “Selectivity: IC50(human β-hexosaminidase)/IC50(Human OGA)” value in assay [4] is listed as >283.

Consider `CCCCCCN1[C@H](CC(=O)NCC2CCCCC2)[C@H](O)[C@H](O)[C@H]1CO` [Compound A031, N-(cyclohexylmethyl)-2-((2R,3S,4R,5R)-1-hexyl-3,4-dihydroxy-5-(hydroxymethyl)pyrrolidin-2-yl)acetamide], for which the values for the IC50 in assay [2] and in assay [3] were 75.5 µM and > 300 µM, respectively. The “Selectivity: IC50(human β-hexosaminidase)/IC50(Human OGA)” value in assay [4] is reported as >3.97.

For `CNC(=O)C[C@@H]1[C@H](O)[C@H](O)[C@@H](CO)N1CCCCCCO` [Compound A040, 2-((2R,3S,4R,5R)-3,4-dihydroxy-1-(6-hydroxyhexyl)-5-(hydroxymethyl)pyrrolidin-2-yl)-N-methylacetamide], the IC50 in assay [2] came to 0.045 µM; in assay [3], 151 µM. In assay [4], the “Selectivity: IC50(human β-hexosaminidase)/IC50(Human OGA)” value is listed as 3355.

`CNC(=O)C[C@H]1[C@@H](O)[C@H](O)[C@H](CO)N1CCCc1ccccc1` [Compound A057, 2-((2S,3R,4R,5S)-3,4-dihydroxy-5-(hydroxymethyl)-1-(3-phenylpropyl)pyrrolidin-2-yl)-N-methylacetamide]: the half-maximal inhibitory concentration (IC50) amounted to 39.2 µM in assay [2] and 4.26 µM in assay [3]. The “Selectivity: IC50(human β-hexosaminidase)/IC50(Human OGA)” value in assay [4] was 0.11.

`CCCCCCN1[C@H](CC(=O)NCCC)[C@H](O)[C@H](O)[C@H]1CO` [Compound A023, 2-((2R,3S,4R,5R)-1-hexyl-3,4-dihydroxy-5-(hydroxymethyl)pyrrolidin-2-yl)-N-propylacetamide]: the figures for the 50% inhibitory concentration (IC50) in assay [2] and in assay [3] were 0.048 µM and > 300 µM, respectively. In addition, the “Selectivity: IC50(human β-hexosaminidase)/IC50(Human OGA)” value in assay [4] was >6211.

As to `CCCCCCCCCN1[C@H](CC(=O)NC(C)C)[C@H](O)[C@H](O)[C@H]1CO` [Compound A014, 2-((2R,3S,4R,5R)-3,4-dihydroxy-5-(hydroxymethyl)-1-nonylpyrrolidin-2-yl)-N-isopropylacetamide], the IC50 in assay [2] is 3.66 µM; in assay [3], > 300 µM. Moreover, in assay [4], the “Selectivity: IC50(human β-hexosaminidase)/IC50(Human OGA)” value is reported as >81.

For the compound `CCCCCCN1[C@H](CC(=O)NCC(C)C)[C@H](O)[C@H](O)[C@H]1CO` [Compound A027, 2-((2R,3S,4R,5R)-1-hexyl-3,4-dihydroxy-5-(hydroxymethyl)pyrrolidin-2-yl)-N-isobutylacetamide], the IC50 was 11.6 µM in assay [2] and > 300 µM in assay [3]. For the same compound, the “Selectivity: IC50(human β-hexosaminidase)/IC50(Human OGA)” value in assay [4] was >25.95.

Turning to `CCNC(=O)C[C@@H]1[C@@H](O)[C@H](O)[C@@H](CO)N1CCCc1ccc(Sc2ccccc2)cc1` [Compound A071, 2-((2R,3R,4R,5R)-3,4-dihydroxy-5-(hydroxymethyl)-1-(3-(4-(phenylthio)phenyl)propyl)pyrrolidin-2-yl)-N-ethylacetamide], the IC50 in assay [2] is 0.007 µM; in assay [3], > 300 µM. In addition, the “Selectivity: IC50(human β-hexosaminidase)/IC50(Human OGA)” value in assay [4] is listed as >42857.

Consider `CCCCCCN1[C@H](CO)[C@@H](O)[C@H](O)[C@@H]1CC(=O)NC` [Compound A047, 2-((2S,3R,4R,5R)-1-hexyl-3,4-dihydroxy-5-(hydroxymethyl)pyrrolidin-2-yl)-N-methylacetamide], for which the IC50 in assay [2] was determined as 0.926 µM; in assay [3], 0.405 µM. The “Selectivity: IC50(human β-hexosaminidase)/IC50(Human OGA)” value in assay [4] is recorded as 0.44.

Consider `CCCCCCN1[C@H](CO)[C@H](O)[C@@H](O)[C@H]1CC(=O)NCCO` [Compound A030, 2-((2R,3S,4S,5R)-1-hexyl-3,4-dihydroxy-5-(hydroxymethyl)pyrrolidin-2-yl)-N-(2-hydroxyethyl)acetamide], for which the concentration for half-maximal inhibition (IC50) is 94.9 µM in assay [2] and > 300 µM in assay [3]. In assay [4], the “Selectivity: IC50(human β-hexosaminidase)/IC50(Human OGA)” value is >3.16.

Source of the values: patent US20140073801A1, “PYRROLIDINE DERIVATIVES AS SELECTIVE GLYCOSIDASE INHIBITORS AND USES THEREOF” (Summit Corporation Plc, priority 2011, published 2014).
